Read-outs that look alike come from different tables or passages of the source.
How the values were obtained:
[1] = system: ADDP (subclone of A2780) versus A2780 ovarian cancer cell lines; test: Resistance factor, GI50 in ADDP/GI50 in A2780; type: cell-based
[2] = system: HT29 colon cancer cells; parameters: method as in earlier work; conditions: MTT, same method, taken from the literature; ref [18],[46],[47]; read-out: GI50 ± SEM, HT29; cited from earlier work
[3] = system: U87 glioblastoma cells; parameters: method as in earlier work; conditions: MTT, same method, taken from the literature; ref [18],[46],[47]; read-out: GI50 ± SEM, U87; cited from earlier work
[4] = system: MCF-7 breast cancer cells; parameters: method as in earlier work; conditions: MTT, same method, taken from the literature; ref [18],[46],[47]; read-out: GI50 ± SEM, MCF-7; cited from earlier work
[5] = system: A2780 ovarian cancer cells; parameters: method as in earlier work; conditions: MTT, same method, taken from the literature; ref [18],[46],[47]; read-out: GI50 ± SEM, A2780; cited from earlier work
[6] = system: H460 lung cancer cells; parameters: method as in earlier work; conditions: MTT, same method, taken from the literature; ref [18],[46],[47]; read-out: GI50 ± SEM, H460; cited from earlier work
[7] = system: A431 skin cancer cells; parameters: method as in earlier work; conditions: MTT, same method, taken from the literature; ref [18],[46],[47]; read-out: GI50 ± SEM, A431; cited from earlier work
[8] = system: Du145 prostate cancer cells; parameters: method as in earlier work; conditions: MTT, same method, taken from the literature; ref [18],[46],[47]; read-out: GI50 ± SEM, Du145; cited from earlier work
[9] = system: BE2-C neuroblastoma cells; parameters: method as in earlier work; conditions: MTT, same method, taken from the literature; ref [18],[46],[47]; read-out: GI50 ± SEM, BE2-C; cited from earlier work
[10] = system: SJ-G2 glioblastoma cells; parameters: method as in earlier work; conditions: MTT, same method, taken from the literature; ref [18],[46],[47]; read-out: GI50 ± SEM, SJ-G2; cited from earlier work
[11] = system: MIA pancreas cancer cells; parameters: method as in earlier work; conditions: MTT, same method, taken from the literature; ref [18],[46],[47]; read-out: GI50 ± SEM, MIA; cited from earlier work
[12] = system: non-cancerous MCF10A breast cell line; parameters: method as in earlier work; conditions: MTT, same method, taken from the literature; ref [18],[46],[47]; read-out: GI50 ± SEM, MCF10A; cited from earlier work
[13] = system: cisplatin-resistant ADDP ovarian (subclone of A2780) cancer cells; parameters: method as in earlier work; conditions: MTT, same method, taken from the literature; ref [18],[46],[47]; read-out: GI50 ± SEM, ADDP; cited from earlier work
[14] = system: HT29 colon cancer cells; test: MTT in vitro cytotoxicity assay, HT29; type: cell-based
Experimental: (§1) The in vitro cytotoxicity assays were undertaken at Calvary Mater Hospital, Waratah, NSW, Australia, following a method previously published in the literature. A stock solution for each compound was prepared in DMSO (30 mM) and stored at −20 °C. The cell lines used in the study include HT29 colon, U87 glioblastoma, MCF-7 breast, A2780 ovarian, H460 lung, A431 skin, Du145 prostate, BE2-C neuroblastoma, SJ-G2 glioblastoma, MIA pancreas, and cisplatin-resistant ADDP ovarian (subclone of A2780) cancer cells, as well as the non-cancerous-derived MCF10A breast cell line. The cancer cell lines were cultured in a humidified atmosphere 5% CO2 at 37 °C and maintained in Dulbecco’s modified Eagle’s medium (Trace Biosciences, Sydney, Australia), supplemented with 10% foetal bovine serum, sodium bicarbonate (10 mM), penicillin (100 IU/mL), streptomycin (100 µg/mL), and glutamine (4 mM). The non-cancerous MCF10A cell line was maintained in DMEM:F12 (1:1) cell culture media, with 5% heat inactivated horse serum, supplemented with penicillin (50 IU/mL), streptomycin (50 µg/mL), glutamine (2 mM), HEPES (20 mM), epidermal growth factor (20 ng/mL), hydrocortisone (500 ng/mL), cholera toxin (100 ng/mL), and insulin (10 µg/mL). Cells were plated in duplicate in medium (100 µL) at a density of 2500–4000 cells per well in 96-well plates. On day 0, (24 h after plating) when the cells were in logarithmic growth, medium (100 μL) with or without the test agent was added to each well. The growth inhibitory effects were evaluated after 72 h drug exposure, using the MTT (3-(4,5-dimethylthiazol-2-yl)-2,5-diphenyltetrazolium bromide) assay, with the absorbance read at 540 nm. An eight-point dose–response curve was produced, which was used to determine the concentration at which growth was inhibited by 50% (GI50). This calculation was based on the difference between the optical density values on day 0 and those at the end of drug exposure. […] Experiments were conducted on three separate occasions and GI50 values were reported as the mean and standard error of the mean.

[15] = system: U87 glioblastoma cells; test: MTT in vitro cytotoxicity assay, U87; type: cell-based; conditions: 72 h drug exposure, n = 3, read-out: GI50 ± SEM, U87
Experimental: as §1

[16] = system: MCF-7 breast cancer cells; test: MTT in vitro cytotoxicity assay, MCF-7; type: cell-based; conditions: MTT, 72 h drug exposure, n = 3; read-out: GI50 ± SEM, MCF-7
[17] = system: A2780 ovarian cancer cells; test: MTT in vitro cytotoxicity assay, A2780; type: cell-based; conditions: 72 h drug exposure, n = 3, read-out: GI50 ± SEM, A2780
Experimental: as §1

[18] = system: H460 lung cancer cells; test: MTT in vitro cytotoxicity assay, H460; type: cell-based; conditions: 72 h drug exposure, n = 3, read-out: GI50 ± SEM, H460
Experimental: as §1

[19] = system: A431 skin cancer cells; test: MTT in vitro cytotoxicity assay, A431; type: cell-based; conditions: 72 h drug exposure, n = 3, read-out: GI50 ± SEM, A431
Experimental: as §1

[20] = system: Du145 prostate cancer cells; test: MTT in vitro cytotoxicity assay, Du145; type: cell-based
Experimental: as §1

[21] = system: BE2-C neuroblastoma cells; test: MTT in vitro cytotoxicity assay, BE2-C; type: cell-based; conditions: 72 h drug exposure, n = 3, read-out: GI50 ± SEM, BE2-C
Experimental: as §1

[22] = system: SJ-G2 glioblastoma cells; test: MTT in vitro cytotoxicity assay, SJ-G2; type: cell-based; conditions: 72 h drug exposure, n = 3, read-out: GI50 ± SEM, SJ-G2
Experimental: as §1

[23] = system: MIA pancreas cancer cells; test: MTT in vitro cytotoxicity assay, MIA; type: cell-based; conditions: 72 h drug exposure, n = 3, read-out: GI50 ± SEM, MIA
Experimental: as §1

[24] = system: non-cancerous MCF10A breast cell line; test: MTT in vitro cytotoxicity assay, MCF10A; type: cell-based; conditions: 72 h drug exposure, n = 3, read-out: GI50 ± SEM, MCF10A
Experimental: as §1

[25] = system: cisplatin-resistant ADDP ovarian (subclone of A2780) cancer cells; test: MTT in vitro cytotoxicity assay, ADDP; type: cell-based; conditions: 72 h drug exposure, n = 3, read-out: GI50 ± SEM, ADDP
Experimental: as §1

[26] = system: panel of cancer cell lines; test: MTT cytotoxicity averaged across the panel of cancer cell lines; type: cell-based
[27] = Lipophilicity by RP-HPLC (logkw); type: physicochemical; conditions: capacity factor in 100% water
Experimental: HPLC experiments were carried out using an Agilent Technologies (Melbourne, Australia) 1260 Infinity instrument, equipped with a Phenomenex (Sydney, Australia) Onyx^TM Monolithic C18 reverse phase column (100 × 4.6 mm, 130 Å). The mobile phase was made up of 0.06% TFA in water (solvent A) and 0.06% TFA in an acetonitrile:water (9:1) mixture (solvent B). Samples were eluted over a gradient of 0–100% (% B) for 15 min, at a flow rate of 1 mL/min, with a sample injection volume of 10 µL. Eluting peaks were detected using a PDA at 254 nm.
For lipophilicity experiments, RP-HPLC was utilised to determine the logkw of each compound, similarly to what has been previously published for similar complexes. Samples were eluted at various isocratic percentages, ranging from 18–30% solvent B. To determine the dead volume of the column, potassium iodide was used as an external dead volume marker. The retention time of each sample in each isocratic run ( tr ) and the dead volume time ( t0 ) were both substituted in Equation (1) to calculate the capacity factor ( k ). (1) k=tr−t0/t0
Following this, logk was plotted against the percentage of ACN. For each complex, a minimum of four concentrations of ACN were used. This produced a linear graph with the equation in the form:(2) logk=Sφ+logkw where S is the slope, φ is the percentage of ACN, and logkw is the y-intercept, which represents the capacity factor of the compound in 100% water.
It is important to explore the lipophilicity of a drug, as it is widely believed that increased lipophilicity results in greater cellular accumulation. To understand the lipophilicity of 1–4, RP-HPLC was utilised to determine the logkw of each complex. To calculate this, each complex was eluted at different isocratic percentages, whereby the retention time was used in Equation (1) to calculate the capacity factor (k). The percentage of the organic solvent was then plotted against log k for each isocratic percentage, producing a linear equation that allowed for logkw to be deduced using Equation (2) (Figure S38). The logkw value represents the capacity factor of the compound in 100% water and can be used to compare a series of compounds. Since 1–4 comprise the same axially bound ligand, biotin, the lipophilicity was influenced by the groups on the PL. The logkw of each complex is presented in Table 1, with their corresponding PL. The increasing lipophilicity of the complexes followed the order: 1 < 4 < 2 < 3.

N.N.[Cl][Pt][Cl] [Cisplatin, cisplatin]
Resistance factor (RF) [1]: 28.00 | Resistance factor (RF) ([1]; listed as cisplatin): 28 | GI50 [2]: 11300 ± 1900 nM | GI50 [3]: 3800 ± 1100 nM | GI50 [4]: 6500 ± 800 nM | GI50 [5]: 1000 ± 100 nM | GI50 [6]: 900 ± 200 nM | GI50 [7]: 2400 ± 300 nM | GI50 [8]: 1200 ± 100 nM | GI50 [9]: 1900 ± 200 nM | GI50 [10]: 400 ± 100 nM | GI50 [11]: 7500 ± 1300 nM | GI50 [12]: 5200 ± 520 nM | GI50 [13]: 28000 ± 1700 nM

O=C1N[C@H]2[C@H](CS[C@H]2CCCCC(=O)[O][Pt-2]23([OH])([NH2+][C@H]4CCCC[C@@H]4[NH2+]2)[n+]2cccc4ccc5ccc[n+]3c5c42)N1.O=[N+]([O-])[O-].O=[N+]([O-])[O-] [Complex 1, [Pt(1,10-phenthroline)(1S,2S-diaminocyclohexane)(biotin)(hydroxido)](NO3)2]
GI50 ([14]; MTT, 72 h drug exposure, n = 3, read-out: GI50 ± SEM, HT29): 170 ± 60 nM | number-fold potency against cisplatin, HT29 colon ([14]; ratio of GI50 values, 72 h): 66 fold | GI50 [15]: 970 ± 150 nM | GI50 [16]: 850 ± 140 nM | GI50 [17]: 250 ± 20 nM | GI50 [18]: 300 ± 20 nM | GI50 [19]: 600 ± 110 nM | GI50 ([20]; MTT, 72 h drug exposure, n = 3, read-out: GI50 ± SEM, Du145): 120 ± 40 nM | number-fold potency against cisplatin, Du145 prostate ([20]; ratio of GI50 values, 72 h): 10 fold | GI50 [21]: 1000 ± 100 nM | GI50 [22]: 290 ± 70 nM | GI50 [23]: 210 ± 30 nM | GI50 [24]: 280 ± 40 nM | GI50 [25]: 240 ± 10 nM | Resistance factor (RF) [1]: 0.96 | enhanced activity compared to platinum(II) precursor across the cancer cell lines ([26]; across all cancer cell lines): comparable activity | GI50 ([26]; calculated from the panel of cancer cell lines tested (Table S4)): 455 nM | logkw [27]: 0.64

From paper PMC9853328, “Potent Platinum(IV) Prodrugs That Incorporate a Biotin Moiety to Selectively Target Cancer Cells” (Pharmaceutics, 2022)
